According to paper PMC10746543, “Design principles for cyclin K molecular glue degraders” (Nature Chemical Biology, 2023):
Where “and” joins values, the source holds several entries; their conditions need not be identical. Equal values may be shown once. Read-outs that look alike come from different tables or passages of the source. One block for each compound: values may come before it.

Experiments:
[1] = tested on: cyclin K–eGFP degradation reporter; assay: Cyclin K reporter stability analysis (dual-color cyclin K–eGFP reporter); format: cell-based, human
In short: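 Readout: flow-cytometric eGFP/mCherry ratio (geometric means, round mCherry+ gate) relative to the average of three DMSO wells. Reporter line was HEK293T–Cas9, treated 5 h with compound.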

HEK293T cells = assay: Drug sensitivity assay (CellTiter-Glo viability) with or without MLN4924 pretreatment; format: cell-based, human; conditions: for EC50: Homo sapiens, HEK-293T; for Toxicity rescue: MLN4924-mediated cytotoxicity rescue, 10 µM used where n.d.
In short: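 HEK293T–Cas9, 0.15 × 10^6 ml^−1; pretreat DMSO vs 100 nM MLN4924; drugs dispensed after 2 h; 3 d exposure; CellTiter-Glo; viability vs DMSO control.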

CDK12–cyclin K and DDB1 = target: T1, CDK12–cyclin K and DDB1 (Homo sapiens, UniProt Q16531+Q9NYV4, K965R); assay: TR-FRET ternary complex formation assay (compound titration); format: binding
T1 construct: His6–CDK12 (a.a. 713–1,052); full-length or beta-propeller B domain deletion (ΔBPB: a.a. 396–705 deleted) constructs of His6–DDB1ΔBPB, StrepII–Avi–DDB1, or His6–Spy–DDB1; made in house; host or cells: Trichoplusia ni High Five insect cells (baculovirus)
In short: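 Signal was the ratio of 520 nm to 490 nm fluorescence, measured after a 70 μs delay that reduced background.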

[2] = source data sheet correlations, read-out: DC50
[3] = Supplementary Table 2, HEK293T viability, 72 h, compound alone, read-out: Cellular assays EC50
[4] = compound concentration 4.68 nM, raw titration data
[5] = compound concentration 21.6 nM, raw titration data
[6] = compound concentration 36 nM, raw titration data
[7] = compound concentration 79.2001 nM, raw titration data
[8] = compound concentration 158.4 nM, raw titration data
[9] = compound concentration 309.6 nM, raw titration data
[10] = compound concentration 626.401 nM, raw titration data
[11] = compound concentration 1252.8 nM, raw titration data
[12] = compound concentration 2448 nM, raw titration data
[13] = compound concentration 9936.01 nM, raw titration data
[14] = compound concentration 20016 nM, raw titration data
[15] = sheet MOESM7, read-out: log TR-FRET EC50 (converted)
[16] = source data sheet correlations, read-out: TR-FRET EC50
[17] = Supplementary Table 2, HEK293T cycK-eGFP reporter, 5 h, read-out: Cellular assays DC50
[18] = Supplementary Table 2, read-out: TR-FRET EC50 TR-FRET
[19] = in vitro complex formation, 50 nM CDK12–cyclin K, 100 nM DDB1, text and figures, read-out: TR-FRET EC50

T1 sequence (Q9NYV4 713-1052 K965R): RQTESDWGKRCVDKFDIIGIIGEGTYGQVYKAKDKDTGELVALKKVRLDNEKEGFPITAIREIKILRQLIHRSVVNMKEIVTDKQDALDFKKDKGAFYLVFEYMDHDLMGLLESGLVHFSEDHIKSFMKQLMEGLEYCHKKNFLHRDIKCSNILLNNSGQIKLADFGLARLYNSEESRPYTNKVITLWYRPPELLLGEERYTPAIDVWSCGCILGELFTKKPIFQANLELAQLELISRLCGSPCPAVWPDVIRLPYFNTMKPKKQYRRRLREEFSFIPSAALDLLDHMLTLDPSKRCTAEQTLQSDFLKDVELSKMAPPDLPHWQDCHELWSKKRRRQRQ
T1 sequence (O75909 1-267 partner): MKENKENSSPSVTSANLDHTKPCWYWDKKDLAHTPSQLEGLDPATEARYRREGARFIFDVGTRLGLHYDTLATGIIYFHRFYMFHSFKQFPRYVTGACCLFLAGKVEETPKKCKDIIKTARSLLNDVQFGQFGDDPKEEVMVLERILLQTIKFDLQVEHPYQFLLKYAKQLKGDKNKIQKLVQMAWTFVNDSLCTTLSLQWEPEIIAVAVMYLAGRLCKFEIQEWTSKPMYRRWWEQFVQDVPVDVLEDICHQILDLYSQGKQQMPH
T1 sequence (Q16531 whole entry): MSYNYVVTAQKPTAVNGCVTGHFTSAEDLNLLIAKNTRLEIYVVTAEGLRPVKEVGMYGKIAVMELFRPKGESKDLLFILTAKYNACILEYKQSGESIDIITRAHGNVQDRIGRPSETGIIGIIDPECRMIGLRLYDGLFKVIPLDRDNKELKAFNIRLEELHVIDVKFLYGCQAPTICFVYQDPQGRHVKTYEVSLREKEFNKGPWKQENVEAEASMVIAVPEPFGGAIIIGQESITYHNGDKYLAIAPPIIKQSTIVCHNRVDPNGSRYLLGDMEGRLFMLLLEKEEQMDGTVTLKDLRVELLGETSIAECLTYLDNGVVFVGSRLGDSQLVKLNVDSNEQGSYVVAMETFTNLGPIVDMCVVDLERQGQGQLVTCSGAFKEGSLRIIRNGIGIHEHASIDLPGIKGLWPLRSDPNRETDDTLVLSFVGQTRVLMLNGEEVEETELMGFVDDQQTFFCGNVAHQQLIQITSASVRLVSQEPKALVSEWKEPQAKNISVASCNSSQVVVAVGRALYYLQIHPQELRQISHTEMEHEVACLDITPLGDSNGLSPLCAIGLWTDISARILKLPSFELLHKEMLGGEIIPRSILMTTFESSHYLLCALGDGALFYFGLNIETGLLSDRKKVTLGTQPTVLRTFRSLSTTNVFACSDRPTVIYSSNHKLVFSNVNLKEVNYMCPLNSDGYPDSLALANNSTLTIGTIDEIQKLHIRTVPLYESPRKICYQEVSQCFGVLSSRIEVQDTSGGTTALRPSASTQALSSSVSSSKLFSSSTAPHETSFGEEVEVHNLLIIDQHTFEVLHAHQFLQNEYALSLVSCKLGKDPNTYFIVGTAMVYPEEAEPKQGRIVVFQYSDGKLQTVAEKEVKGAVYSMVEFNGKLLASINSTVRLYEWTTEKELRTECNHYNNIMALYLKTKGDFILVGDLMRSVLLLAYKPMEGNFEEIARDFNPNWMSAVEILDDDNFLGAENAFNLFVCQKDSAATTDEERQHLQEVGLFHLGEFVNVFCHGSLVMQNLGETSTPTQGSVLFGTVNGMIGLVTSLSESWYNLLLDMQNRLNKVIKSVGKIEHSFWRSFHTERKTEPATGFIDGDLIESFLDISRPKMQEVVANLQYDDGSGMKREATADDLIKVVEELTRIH

- DC50 [1, 2]: 3.57 µM
- TR-FRET signal at compound concentration 4.68 nM (CDK12–cyclin K and DDB1; [4]): 0.2095 and 0.2212
- TR-FRET signal at compound concentration 21.6 nM (CDK12–cyclin K and DDB1; [5]): 0.2225 and 0.2323
- TR-FRET signal at compound concentration 36 nM (CDK12–cyclin K and DDB1; [6]): 0.253 and 0.2736
- TR-FRET signal at compound concentration 79.2001 nM (CDK12–cyclin K and DDB1; [7]): 0.3096 and 0.3199
- TR-FRET signal at compound concentration 158.4 nM (CDK12–cyclin K and DDB1; [8]): 0.4094 and 0.4186
- TR-FRET signal at compound concentration 309.6 nM (CDK12–cyclin K and DDB1; [9]): 0.5758 and 0.5879
- TR-FRET signal at compound concentration 626.401 nM (CDK12–cyclin K and DDB1; [10]): 0.9565 and 0.9048
- TR-FRET signal at compound concentration 1252.8 nM (CDK12–cyclin K and DDB1; [11]): 1.567 and 1.497
- TR-FRET signal at compound concentration 2448 nM (CDK12–cyclin K and DDB1; [12]): 2.482 and 2.457
- TR-FRET signal at compound concentration 9936.01 nM (CDK12–cyclin K and DDB1; [13]): 3.626 and 3.7316
- TR-FRET signal at compound concentration 20016 nM (CDK12–cyclin K and DDB1; [14]): 3.761 and 3.946
- EC50 (CDK12–cyclin K and DDB1; [15]): 1.92 µM
- EC50 (CDK12–cyclin K and DDB1; [16]): 1.92 µM
Compound: COc1ccccc1CCNC(=O)CNc1nc(NCc2ccc(-c3ccccn3)cc2)c2ncn(C(C)C)c2n1 [DS50]
- EC50 (HEK293T cells; [3]): > 10 µM
- Toxicity rescue (HEK293T cells; Supplementary Table 2): 0%

- DC50 [1, 17]: > 10 µM
- EC50 (CDK12–cyclin K and DDB1; [18]): 0.274 µM
- TR-FRET signal at compound concentration 4.68 nM (CDK12–cyclin K and DDB1; [4]): 0.2297 and 0.2444
- TR-FRET signal at compound concentration 21.6 nM (CDK12–cyclin K and DDB1; [5]): 0.3216 and 0.3313
- TR-FRET signal at compound concentration 36 nM (CDK12–cyclin K and DDB1; [6]): 0.5067 and 0.5037
- TR-FRET signal at compound concentration 79.2001 nM (CDK12–cyclin K and DDB1; [7]): 0.816 and 0.7927
- TR-FRET signal at compound concentration 158.4 nM (CDK12–cyclin K and DDB1; [8]): 1.255 and 1.244
- TR-FRET signal at compound concentration 309.6 nM (CDK12–cyclin K and DDB1; [9]): 1.886 and 1.872
- TR-FRET signal at compound concentration 626.401 nM (CDK12–cyclin K and DDB1; [10]): 2.526 and 2.552
- TR-FRET signal at compound concentration 1252.8 nM (CDK12–cyclin K and DDB1; [11]): 3.049 and 3.029
- TR-FRET signal at compound concentration 2448 nM (CDK12–cyclin K and DDB1; [12]): 3.216 and 3.3184
- TR-FRET signal at compound concentration 9936.01 nM (CDK12–cyclin K and DDB1; [13]): 3.256 and 3.415
- TR-FRET signal at compound concentration 20016 nM (CDK12–cyclin K and DDB1; [14]): 3.017 and 3.197
- EC50 (CDK12–cyclin K and DDB1; [19]): 0.275 ± 0.016 µM
- EC50 (CDK12–cyclin K and DDB1; [15]): 0.274 µM
Compound: CC(C)n1cnc2c(NCc3ccc(-c4ccccn4)cc3)nc(NCCCCCC(=O)N[C@H]3O[C@H](CO)[C@@H](O)[C@H](O)[C@H]3O)nc21 [DS51]
- EC50 (HEK293T cells; [3]): > 10 µM
- Toxicity rescue (HEK293T cells; Supplementary Table 2): 0%

- DC50 [1, 2]: 0.26 µM
- TR-FRET signal at compound concentration 0.468 nM (CDK12–cyclin K and DDB1; compound concentration 0.468 nM, raw titration data): 0.2712 and 0.18 and 0.1818
- TR-FRET signal at compound concentration 2.16 nM (CDK12–cyclin K and DDB1; compound concentration 2.16 nM, raw titration data): 0.3079 and 0.2048 and 0.2158
- TR-FRET signal at compound concentration 3.6 nM (CDK12–cyclin K and DDB1; compound concentration 3.6 nM, raw titration data): 0.3797 and 0.262 and 0.2749
- TR-FRET signal at compound concentration 7.92001 nM (CDK12–cyclin K and DDB1; compound concentration 7.92001 nM, raw titration data): 0.5132 and 0.3757 and 0.3886
- TR-FRET signal at compound concentration 15.84 nM (CDK12–cyclin K and DDB1; compound concentration 15.84 nM, raw titration data): 0.7262 and 0.5713 and 0.5982
- TR-FRET signal at compound concentration 30.96 nM (CDK12–cyclin K and DDB1; compound concentration 30.96 nM, raw titration data): 1.044 and 0.9086 and 0.9152
- TR-FRET signal at compound concentration 62.6401 nM (CDK12–cyclin K and DDB1; compound concentration 62.6401 nM, raw titration data): 1.465 and 1.176 and 1.2036
- TR-FRET signal at compound concentration 125.28 nM (CDK12–cyclin K and DDB1; compound concentration 125.28 nM, raw titration data): 1.697 and 1.379 and 1.374
- TR-FRET signal at compound concentration 244.8 nM (CDK12–cyclin K and DDB1; compound concentration 244.8 nM, raw titration data): 1.763 and 1.446 and 1.498
- TR-FRET signal at compound concentration 993.601 nM (CDK12–cyclin K and DDB1; compound concentration 993.601 nM, raw titration data): 1.748 and 1.523 and 1.543
- TR-FRET signal at compound concentration 2001.6 nM (CDK12–cyclin K and DDB1; compound concentration 2001.6 nM, raw titration data): 1.731 and 1.529 and 1.559
- EC50 (CDK12–cyclin K and DDB1; [19]): 0.028 ± 0.002 µM
- EC50 (CDK12–cyclin K and DDB1; [16]): 0.0277 µM
Compound: CC[C@H](CO)Nc1nc(NCc2ccc(-c3ccncc3)nc2)c2ncn(C(C)C)c2n1 [DS53]
- EC50 (HEK293T cells; [3]): 0.635 µM
- Toxicity rescue (HEK293T cells; Supplementary Table 2): 140%

- DC50 [1, 17]: > 10 µM
- EC50 (CDK12–cyclin K and DDB1; [18]): 0.252 µM
- TR-FRET signal (CDK12–cyclin K and DDB1; compound concentration 4.68 nM): 0.1326 and 0.1303
- TR-FRET signal at compound concentration 4.68 nM (CDK12–cyclin K and DDB1; compound concentration 4.68 nM, raw replicate titration data): 0.1326 and 0.1303
- TR-FRET signal (CDK12–cyclin K and DDB1; compound concentration 21.6 nM): 0.1333 and 0.1406
- TR-FRET signal at compound concentration 21.6 nM (CDK12–cyclin K and DDB1; compound concentration 21.6 nM, raw replicate titration data): 0.1333 and 0.1406
- TR-FRET signal (CDK12–cyclin K and DDB1; compound concentration 36 nM): 0.1624 and 0.1682
- TR-FRET signal at compound concentration 36 nM (CDK12–cyclin K and DDB1; compound concentration 36 nM, raw replicate titration data): 0.1624 and 0.1682
- TR-FRET signal (CDK12–cyclin K and DDB1; compound concentration 79.2001 nM): 0.2054 and 0.2174
- TR-FRET signal at compound concentration 79.2001 nM (CDK12–cyclin K and DDB1; compound concentration 79.2001 nM, raw replicate titration data): 0.2054 and 0.2174
- TR-FRET signal (CDK12–cyclin K and DDB1; compound concentration 158.4 nM): 0.3007
- TR-FRET signal at compound concentration 158.4 nM (CDK12–cyclin K and DDB1; compound concentration 158.4 nM, raw replicate titration data): 0.3007
- TR-FRET signal (CDK12–cyclin K and DDB1; compound concentration 309.6 nM): 0.4286 and 0.4588
- TR-FRET signal at compound concentration 309.6 nM (CDK12–cyclin K and DDB1; compound concentration 309.6 nM, raw replicate titration data): 0.4286 and 0.4588
- TR-FRET signal (CDK12–cyclin K and DDB1; compound concentration 626.401 nM): 0.5953 and 0.5848
- TR-FRET signal at compound concentration 626.401 nM (CDK12–cyclin K and DDB1; compound concentration 626.401 nM, raw replicate titration data): 0.5953 and 0.5848
- TR-FRET signal (CDK12–cyclin K and DDB1; compound concentration 1252.8 nM): 0.6865 and 0.6689
- TR-FRET signal at compound concentration 1252.8 nM (CDK12–cyclin K and DDB1; compound concentration 1252.8 nM, raw replicate titration data): 0.6865 and 0.6689
- TR-FRET signal (CDK12–cyclin K and DDB1; compound concentration 2448 nM): 0.7142 and 0.68
- TR-FRET signal at compound concentration 2448 nM (CDK12–cyclin K and DDB1; compound concentration 2448 nM, raw replicate titration data): 0.7142 and 0.68
- TR-FRET signal (CDK12–cyclin K and DDB1; compound concentration 9936.01 nM): 0.6777 and 0.6603
- TR-FRET signal at compound concentration 9936.01 nM (CDK12–cyclin K and DDB1; compound concentration 9936.01 nM, raw replicate titration data): 0.6777 and 0.6603
- TR-FRET signal (CDK12–cyclin K and DDB1; compound concentration 20016 nM): 0.6177 and 0.617
- TR-FRET signal at compound concentration 20016 nM (CDK12–cyclin K and DDB1; compound concentration 20016 nM, raw replicate titration data): 0.6177 and 0.617
Compound: Cn1cc(-n2cnc3c(NCc4nc5cc(O)ccc5[nH]4)nc(N4CCOCC4)nc32)cn1 [DS54]
- EC50 (HEK293T cells; Supplementary Fig. 5, HEK293T, CellTiter Glo, 72h, pre-treatment with 100 nM MLN4924, read-out: Viability EC50, with MLN4924): 3.29 µM
- EC50 (HEK293T cells; Supplementary Fig. 5, HEK293T, CellTiter Glo, 72h, read-out: Viability EC50, no MLN4924): 0.073 µM
- EC50 (HEK293T cells; [3]): > 10 µM
- Toxicity rescue (HEK293T cells; Supplementary Table 2): 0%
